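The compound was tested at five concentrations on cells cultured in 96-well plates, with a 48-hour exposure period. TGI: concentration producing complete growth inhibition.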
Key:
Test in all cases: NCI anticancer screen, dose series, 48 h
UO-31 renal = test system: UO-31 renal
MDA-MB-231 breast = test system: MDA-MB-231 breast
HS 578T breast = test system: HS 578T breast
ACHN renal = test system: ACHN renal
T-47D breast = test system: T-47D breast
SR leukemia = test system: SR leukemia
SNB-19 CNS = test system: SNB-19 CNS
EKVX NSCLC = test system: EKVX NSCLC
HOP-62 NSCLC = test system: HOP-62 NSCLC
NCI/ADR-RES ovarian = test system: NCI/ADR-RES ovarian
RPMI-8226 leukemia = test system: RPMI-8226 leukemia
SF-539 CNS = test system: SF-539 CNS
HCT-116 colon = test system: HCT-116 colon
CCRF-CEM leukemia = test system: CCRF-CEM leukemia
SW-620 colon = test system: SW-620 colon
HT29 colon = test system: HT29 colon
SNB-75 CNS = test system: SNB-75 CNS
TK-10 renal = test system: TK-10 renal
HOP-92 NSCLC = test system: HOP-92 NSCLC
SK-MEL-5 melanoma = test system: SK-MEL-5 melanoma
SK-OV-3 ovarian = test system: SK-OV-3 ovarian
COLO 205 colon = test system: COLO 205 colon
NCI-H23 lung = test system: NCI-H23 lung
MOLT-4 leukemia = test system: MOLT-4 leukemia
BT-549 breast = test system: BT-549 breast
SN12C renal = test system: SN12C renal
OVCAR-8 ovarian = test system: OVCAR-8 ovarian
SK-MEL-2 melanoma = test system: SK-MEL-2 melanoma
HCC-2998 colon = test system: HCC-2998 colon
OVCAR-3 ovarian = test system: OVCAR-3 ovarian
MDA-MB-435 = test system: MDA-MB-435
SF-295 CNS = test system: SF-295 CNS
IGROV1 ovarian = test system: IGROV1 ovarian
HCT-15 colon = test system: HCT-15 colon
SF-268 CNS = test system: SF-268 CNS
UACC-257 melanoma = test system: UACC-257 melanoma
K-562 leukemia = test system: K-562 leukemia
LOX IMVI melanoma = test system: LOX IMVI melanoma
OVCAR-5 ovarian = test system: OVCAR-5 ovarian
M14 melanoma = test system: M14 melanoma
CAKI-1 renal = test system: CAKI-1 renal
KM12 colon = test system: KM12 colon
NCI-H226 lung = test system: NCI-H226 lung
MCF7 breast = test system: MCF7 breast
SK-MEL-28 melanoma = test system: SK-MEL-28 melanoma
UACC-62 melanoma = test system: UACC-62 melanoma
786-0 renal = test system: 786-0 renal
MALME-3M melanoma = test system: MALME-3M melanoma
A498 renal = test system: A498 renal
U251 CNS = test system: U251 CNS
A549 NSCLC = test system: A549 NSCLC
DU-145 prostate = test system: DU-145 prostate
OVCAR-4 ovarian = test system: OVCAR-4 ovarian
PC-3 prostate = test system: PC-3 prostate

How did the TGI (UO-31 renal) turn out when `COC(=O)CN1SC2(SC13C(C)(C)C(=O)C3(C)C)C(C)(C)C(=O)C2(C)C` was run?
Its TGI is over 100 µM.

And the TGI (MDA-MB-231 breast)?
Its TGI is over 100 µM.

What about the TGI (HS 578T breast) of the same compound?
Its TGI is over 100 µM.

What about the TGI (ACHN renal) of the same compound?
The TGI was over 100 µM.

And the TGI (T-47D breast)?
Its TGI is over 100 µM.

What about the TGI (SR leukemia) of the same compound?
Its TGI is over 100 µM.

And the TGI (SNB-19 CNS)?
The TGI was over 100 µM.

And the TGI (EKVX NSCLC)?
The TGI was over 100 µM.

And the TGI (HOP-62 NSCLC)?
Its TGI is over 100 µM.

What about the TGI (NCI/ADR-RES ovarian) of the same compound?
Its TGI is 87.8 µM.

And the TGI (RPMI-8226 leukemia)?
The TGI was over 100 µM.

What about the TGI (SF-539 CNS) of the same compound?
Its TGI is over 100 µM.

And the TGI (HCT-116 colon)?
Its TGI is over 100 µM.

What about the TGI (CCRF-CEM leukemia) of the same compound?
Its TGI is 32.8 µM.

And the TGI (SW-620 colon)?
Its TGI is over 100 µM.

And the TGI (HT29 colon)?
Its TGI is over 100 µM.

What about the TGI (SNB-75 CNS) of the same compound?
The TGI was over 100 µM.

What about the TGI (TK-10 renal) of the same compound?
Its TGI is over 100 µM.

And the TGI (HOP-92 NSCLC)?
Its TGI is 21.3 µM.

What about the TGI (SK-MEL-5 melanoma) of the same compound?
Its TGI is over 100 µM.

And the TGI (SK-OV-3 ovarian)?
Its TGI is over 100 µM.

And the TGI (COLO 205 colon)?
The TGI was over 100 µM.

And the TGI (NCI-H23 lung)?
Its TGI is over 100 µM.

And the TGI (MOLT-4 leukemia)?
The TGI was over 100 µM.

What about the TGI (BT-549 breast) of the same compound?
The TGI was 90.3 µM.

And the TGI (SN12C renal)?
Its TGI is over 100 µM.

What about the TGI (OVCAR-8 ovarian) of the same compound?
The TGI was over 100 µM.

And the TGI (SK-MEL-2 melanoma)?
The TGI was over 100 µM.

What about the TGI (HCC-2998 colon) of the same compound?
Its TGI is over 100 µM.

What about the TGI (OVCAR-3 ovarian) of the same compound?
Its TGI is over 100 µM.

And the TGI (MDA-MB-435)?
Its TGI is over 100 µM.

And the TGI (SF-295 CNS)?
The TGI was over 100 µM.

And the TGI (IGROV1 ovarian)?
The TGI was over 100 µM.

What about the TGI (HCT-15 colon) of the same compound?
The TGI was over 100 µM.

What about the TGI (SF-268 CNS) of the same compound?
The TGI was over 100 µM.

What about the TGI (UACC-257 melanoma) of the same compound?
Its TGI is over 100 µM.

And the TGI (K-562 leukemia)?
The TGI was over 100 µM.

What about the TGI (LOX IMVI melanoma) of the same compound?
The TGI was over 100 µM.

What about the TGI (OVCAR-5 ovarian) of the same compound?
The TGI was over 100 µM.

What about the TGI (M14 melanoma) of the same compound?
Its TGI is over 100 µM.

And the TGI (CAKI-1 renal)?
The TGI was over 100 µM.

And the TGI (KM12 colon)?
The TGI was over 100 µM.

And the TGI (NCI-H226 lung)?
Its TGI is 93.8 µM.

And the TGI (MCF7 breast)?
Its TGI is over 100 µM.

And the TGI (SK-MEL-28 melanoma)?
Its TGI is over 100 µM.

And the TGI (UACC-62 melanoma)?
Its TGI is over 100 µM.

And the TGI (786-0 renal)?
Its TGI is over 100 µM.

What about the TGI (MALME-3M melanoma) of the same compound?
Its TGI is over 100 µM.

What about the TGI (A498 renal) of the same compound?
Its TGI is over 100 µM.

And the TGI (U251 CNS)?
Its TGI is over 100 µM.

What about the TGI (A549 NSCLC) of the same compound?
The TGI was over 100 µM.

What about the TGI (DU-145 prostate) of the same compound?
Its TGI is over 100 µM.

And the TGI (OVCAR-4 ovarian)?
Its TGI is over 100 µM.

What about the TGI (PC-3 prostate) of the same compound?
Its TGI is over 100 µM.

— PubChem BioAssay (NCI)
